Experimental data as given in paper PMC3736441 (Marine Drugs, 2013).

Tests used:
[1] = molecular target: α-acetylcholinesterase (AChE) (Homo sapiens, UniProt P22303); assay: biochemical; type: biochemical; details: phosphate buffer pH 7.0, 37 °C, triplicate; for IC50: read-out: Inhibition of AChE IC50; on all read-outs here: key: '-' as 'no action'
Method: α-Acetylcholinesterase inhibitory activity was assayed using 50 mM phosphate buffer (pH 7.0). […] 10 μL of sample solution and 10 μL of α-acetylcholinesterase solution (2 units mL^−1, in the phosphate buffer at pH 7.0) were added to 960 μL of phosphate buffer and incubated at 37 °C for 30 min, and then 20 μL of substrate were added to initiate the enzyme reaction. The enzyme reaction was carried out at 37 °C for 30 min. Product was monitored spectrophotometrically by measuring the absorbance (λ = 400 nm). Huperzine A was used as reference standard inhibitor for comparison. Dose-response curves were obtained by performing assays in the presence of increasing concentrations of inhibitors. IC50 value was determined by interpolation of the dose-response curves. For all tests, the inhibition assays were performed in triplicate.

[2] = test system: human nasopharyngeal carcinoma cells (KB); details: MTT
Method: (§1) IC50 of these compounds were determined by the MTT assay (see Table 2).
(§2) The cytotoxic activities were determined using MCF-7, A549, Hela, KB human tumor cells by the MTT colorimetric method. […] Subsequently 20 μL of MTT solution (5 mg/mL) were added to each well and mixed, the cells were then incubated for an additional 4 h. Culture supernatant were removed, 150 μL of DMSO were added to each well to fully dissolve the MTT—formazan crystals. Cell growth inhibition was determined by measuring the absorbance (Abs) at λ = 570 nm using a microplate reader and calculated according to the following equation: Growth inhibition = (1 − OD of treated cells/OD of control cells) × 100% (1)
(§3) The half maximal inhibitory concentrations (IC50) were obtained from linear regression analysis of the concentration-response curves plotted for each tested compound (Bliss’s software). Results were expressed as the mean value of triplicate data points.

lung cancer cells (A549) = details: MTT
Method: as §1, §2, §3

[3] = test system: cervix carcinoma cells (Hela); assay: in vitro; details: Hela cells, MTT
Method: as §1, §2, §3

[4] = test system: human breast cancer cells (MCF-7); assay: in vitro; details: MCF-7 cells, MTT
Method: as §1, §2, §3

in vitro = details: human
Method: as §1, §2, §3

α-acetylcholinesterase (AChE), sequence (P22303 32-614): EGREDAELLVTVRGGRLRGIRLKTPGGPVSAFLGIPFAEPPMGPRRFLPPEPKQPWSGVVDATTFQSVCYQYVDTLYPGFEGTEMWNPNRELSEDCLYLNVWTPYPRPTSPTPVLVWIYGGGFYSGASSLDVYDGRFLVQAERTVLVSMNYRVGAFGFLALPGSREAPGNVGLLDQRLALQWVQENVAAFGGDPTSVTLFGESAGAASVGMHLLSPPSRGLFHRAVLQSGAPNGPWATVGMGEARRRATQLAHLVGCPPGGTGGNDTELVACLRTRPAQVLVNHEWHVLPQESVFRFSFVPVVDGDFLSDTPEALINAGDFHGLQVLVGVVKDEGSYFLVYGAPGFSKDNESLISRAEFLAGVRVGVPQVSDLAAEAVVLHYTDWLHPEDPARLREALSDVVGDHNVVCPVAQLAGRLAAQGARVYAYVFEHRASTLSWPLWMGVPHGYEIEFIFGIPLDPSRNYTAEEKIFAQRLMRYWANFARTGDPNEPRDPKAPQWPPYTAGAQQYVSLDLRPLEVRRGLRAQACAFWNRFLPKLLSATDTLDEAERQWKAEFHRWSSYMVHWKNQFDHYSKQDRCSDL

COc1cc(OC)c2c(c1O)C(=O)c1sc(C(C)O)cc1C2=O (centres unmarked) [Compound 1, 8-hydroxy-2-[1-hydroxyethyl]-5,7-dimethoxynaphtho[2,3-b] thiophene-4,9-dione]
Inhibition of AChE IC50 [1]: - | Cytotoxicity IC50 KB [2]: - | cytotoxic / inhibitory activity against KB (in words) [2]: no inhibitory activities | Cytotoxicity IC50 A549 (lung cancer cells (A549)): - | cytotoxic / inhibitory activity against A549 (in words) (lung cancer cells (A549)): no inhibitory activities | Cytotoxicity IC50 Hela [3]: - | cytotoxic / inhibitory activity against Hela (in words) [3]: no inhibitory activities | Cytotoxicity IC50 MCF-7 [4]: - | cytotoxic / inhibitory activity against MCF-7 (in words) [4]: no inhibitory activities

COC1=CC(=O)c2c(O)c(C)c3c(c2C1=O)O[C@@H](C)C3 [Compound 2, anhydrojavanicin]
IC50 [1]: 2.01 µM | Cytotoxicity IC50 KB [2]: - | cytotoxic / inhibitory activity against KB (in words) [2]: no inhibitory activities | Cytotoxicity IC50 A549 (lung cancer cells (A549)): - | cytotoxic / inhibitory activity against A549 (in words) (lung cancer cells (A549)): no inhibitory activities | Cytotoxicity IC50 Hela [3]: - | cytotoxic / inhibitory activity against Hela (in words) [3]: no inhibitory activities | Cytotoxicity IC50 MCF-7 [4]: - | cytotoxic / inhibitory activity against MCF-7 (in words) [4]: no inhibitory activities

COc1cc(OC)c2c(c1O)C(=O)c1cc(C)ncc1C2=O [Compound 3, 8-O-methylbostrycoidin]
IC50 [1]: 6.71 µM | Cytotoxicity IC50 KB [2]: - | cytotoxic / inhibitory activity against KB (in words) [2]: no inhibitory activities | Cytotoxicity IC50 A549 (lung cancer cells (A549)): - | cytotoxic / inhibitory activity against A549 (in words) (lung cancer cells (A549)): no inhibitory activities | Cytotoxicity IC50 Hela [3]: - | cytotoxic / inhibitory activity against Hela (in words) [3]: no inhibitory activities | Cytotoxicity IC50 MCF-7 [4]: - | cytotoxic / inhibitory activity against MCF-7 (in words) [4]: no inhibitory activities

COc1cc(OC)c2c(c1O)C(=O)C(CC(C)=O)=C(C)C2=O [Compound 4, 8-O-methyljavanicin]
Inhibition of AChE IC50 [1]: - | Cytotoxicity IC50 KB [2]: - | cytotoxic / inhibitory activity against KB (in words) [2]: no inhibitory activities | Cytotoxicity IC50 A549 (lung cancer cells (A549)): - | cytotoxic / inhibitory activity against A549 (in words) (lung cancer cells (A549)): no inhibitory activities | Cytotoxicity IC50 Hela [3]: - | cytotoxic / inhibitory activity against Hela (in words) [3]: no inhibitory activities | Cytotoxicity IC50 MCF-7 [4]: - | cytotoxic / inhibitory activity against MCF-7 (in words) [4]: no inhibitory activities

CCc1c(OC)cc2c(c1O)C(=O)C[C@H](O)[C@H]2O [Compound 5, botryosphaerone D]
Inhibition of AChE IC50 [1]: - | Cytotoxicity IC50 KB [2]: - | cytotoxic / inhibitory activity against KB (in words) [2]: no inhibitory activities | Cytotoxicity IC50 A549 (lung cancer cells (A549)): - | cytotoxic / inhibitory activity against A549 (in words) (lung cancer cells (A549)): no inhibitory activities | Cytotoxicity IC50 Hela [3]: - | cytotoxic / inhibitory activity against Hela (in words) [3]: no inhibitory activities | Cytotoxicity IC50 MCF-7 [4]: - | cytotoxic / inhibitory activity against MCF-7 (in words) [4]: no inhibitory activities

CCc1c(OC)cc2c(c1O)C(=O)C(OC)=CC2=O [Compound 6, 6-ethyl-5-hydroxy-3,7-dimethoxynaphthoquinone]
Inhibition of AChE IC50 [1]: - | Cytotoxicity IC50 KB [2]: - | cytotoxic / inhibitory activity against KB (in words) [2]: no inhibitory activities | Cytotoxicity IC50 A549 (lung cancer cells (A549)): - | cytotoxic / inhibitory activity against A549 (in words) (lung cancer cells (A549)): no inhibitory activities | Cytotoxicity IC50 Hela [3]: - | cytotoxic / inhibitory activity against Hela (in words) [3]: no inhibitory activities | Cytotoxicity IC50 MCF-7 [4]: - | cytotoxic / inhibitory activity against MCF-7 (in words) [4]: no inhibitory activities

CC(C)[C@@H](C)/C=C/[C@@H](C)[C@H]1CC[C@H]2C3=CC(=O)[C@@]4(O)C[C@@H](O)CC[C@]4(C)[C@H]3CC[C@]12C [Compound 7, 3β,5α-dihydroxy-(22E,24R)-ergosta-7,22-dien-6-one]
Inhibition of AChE IC50 [1]: - | cytotoxic / inhibitory activity against KB (in words) [2]: strong or moderate cytotoxic activies | cytotoxic / inhibitory activity against A549 (in words) (lung cancer cells (A549)): strong or moderate cytotoxic activies | cytotoxic / inhibitory activity against Hela (in words) [3]: strong or moderate cytotoxic activies | cytotoxic / inhibitory activity against MCF-7 (in words) [4]: strong or moderate cytotoxic activies

CC(C)[C@@H](C)/C=C/[C@@H](C)[C@H]1CC[C@@]2(O)C3=CC(=O)[C@@]4(O)C[C@@H](O)CC[C@]4(C)[C@H]3CC[C@]12C [Compound 8, 3β,5α,14α-trihydroxy-(22E,24R)-ergosta-7,22-dien-6-one]
Inhibition of AChE IC50 [1]: - | cytotoxic / inhibitory activity against KB (in words) [2]: weak inhibitory activities | cytotoxic / inhibitory activity against A549 (in words) (lung cancer cells (A549)): weak inhibitory activities | IC50 (in vitro; Cytotoxicity IC50 Hela, Hela cells, MTT): 25.4 µM | IC50 (in vitro; Cytotoxicity IC50 MCF-7, MCF-7 cells, MTT): 24.4 µM | cytotoxic / inhibitory activity against Hela (in words) [3]: weak inhibitory activities | cytotoxic / inhibitory activity against MCF-7 (in words) [4]: weak inhibitory activities

CC(=O)O[C@H]1C[C@H]2[C@H]3[C@H]([C@@H](O)C[C@]2(C)[C@H]1[C@H](C)/C=C/[C@H](C)C(C)C)[C@@]1(C)CC[C@H](O)C[C@@H]1C(=O)[C@@H]3O [Compound 9, NGA0187]
IC50 [1]: 1.89 µM | Cytotoxicity IC50 KB [2]: - | cytotoxic / inhibitory activity against KB (in words) [2]: no inhibitory activities | Cytotoxicity IC50 A549 (lung cancer cells (A549)): - | cytotoxic / inhibitory activity against A549 (in words) (lung cancer cells (A549)): no inhibitory activities | Cytotoxicity IC50 Hela [3]: - | cytotoxic / inhibitory activity against Hela (in words) [3]: no inhibitory activities | Cytotoxicity IC50 MCF-7 [4]: - | cytotoxic / inhibitory activity against MCF-7 (in words) [4]: no inhibitory activities

COc1cccc2c1C(=O)c1c(O)c3c(c(O)c1C2=O)C[C@@](O)(C(=O)CO)C[C@@H]3O[C@H]1C[C@H](N)[C@@H](O)[C@H](C)O1 [Epirubicin, reference compound]
IC50 (in vitro; Cytotoxicity IC50 Hela): 1.07 µM | IC50 (in vitro; Cytotoxicity IC50 MCF-7): 0.42 µM
